Experimental findings from patent US20100143899A1, “METHODS AND PRODUCTS FOR DIAGNOSING CANCER” (University of Vermont and State Agricultural College, priority 2005, published 2010) are described below.

Entries after “also recorded” stand apart in the source; their conditions may differ.

Experiment [1] relates to HOXB13 mRNA in melanoma cell lines. The experiment can be described thus: Quantitative RT-PCR of HOXB13 expression after 5AzadC treatment. It is filed as cell-based, human. As to conditions: in 2 out of 3 cell lines with promoter region methylation. The procedure: (§1) 5AzadC treatment and microarray analysis. Cells were grown to 50% confluence in 100 mm culture plates and treated with 5 μM 5AzadC (Sigma; St. Louis, Mo.) dissolved in growth media. Fresh 5AzadC media was added every 24 hours until the end of the assay (96 hours). RNA and DNA were isolated from a batch of 5AzadC treated cells every 24 hours starting with 0 hour controls. RNA was isolated following 0 hr and 48 hr 5AzadC treatment of six melanoma cell lines (MelJuSo, UACC 903, c8161, Neo-6 c8161, WM1205 and WM35) and used for the re-expression microarray analysis. Total RNA was isolated using the RNeasy kit (Qiagen; Valencia, Calif.) according to manufacturer's instructions. […] Probe set signal calls with p values greater than 0.01 were not further evaluated. […]
(§2) Bisulfite sequencing and quantitative PCR. […] Particular CpG sites were scored as positive if the C:T peak ratio exceeded 1:3 (at least 25% methylation). Real time quantitative PCR was performed for validation of microarray expression data of selected candidate genes by using 2.5 μl of 100 fold diluted cDNA template and 0.2 μM gene specific primers in a 25 μl PCR reaction using JumpStart SYBR green kit (Sigma) according to manufacturer's instructions in an ABI 7700. The reactions were performed in duplicate, CT values obtained were normalized to GAPDH levels and quantification was performed using the comparative CT method.

The subject of experiment [2] is six human melanoma cell lines (MelJuSo, UACC 903, c8161, Neo-6 c8161, WM1205 and WM35). The experiment can be described thus: Re-expression microarray analysis after 5AzadC treatment. Type of experiment: cell-based. As to conditions: 5 μM 5AzadC, 48 hours, relative to untreated cells; in at least one of the six melanoma cell lines; HG U133A microarray. As to the method:
as §1, with “instructions. Preparation of double stranded cDNA and in-vitro transcription (IVT) was as per manufacturer's recommendations. Biotinylated cRNA obtained from IVT were fragmented and hybridized on Human Genome U133A array as per manufacturer's recommendations (Affymetrix; Santa Clara, Calif.).” for “instructions.”
In order to determine DNA methylation-related expression changes, six human melanoma cell lines were treated with 5AzadC and compared for expression changes at 48 hours post-treatment relative to untreated melanoma cell lines. […] No DNA methylation was detected in primary human melanocytes at any of the loci. […]

The test system of experiment [3] is methylated candidate genes in melanoma cell lines. The experiment can be described thus: Quantitative RT-PCR of candidate genes after 5AzadC treatment. Type of experiment: cell-based, human. As to conditions: expression relative to melanocytes. The procedure: as §1, §2
The test system of experiment [4] is SYK mRNA in melanoma cell lines. The experiment can be described thus: Quantitative RT-PCR of SYK expression after 5AzadC treatment. Type of experiment: cell-based, human. The settings on record: in a subset (4/8) of cell lines with SYK methylation. The procedure:
as §1, §2

Experiment [5] deals with QPCT promoter region in MelJuSo melanoma cell line. As to the kind of experiment: Bisulfite sequencing of promoter region after 5AzadC treatment. It is filed as cell-based, human. As to conditions: 48 h, bisulfite sequencing (FIG. 5). As to the method: FIG. 5A represents the original sequence for comparison (SEQ ID NO:58).
Bisulfite sequencing and quantitative PCR. DNA was isolated from cells and tissues using standard phenol-chloroform extraction. Bisulfite modification was performed as previously described (24) on DNA from melanocytes, melanoma cell lines prior to and after 48 hr treatment with 5AzadC and DNA from melanoma tissues. PCR reactions were carried out using 50 ng of bisulfite modified DNA in a 30 μl volume with a 0.2 μM primer concentration (primer sequences are provided in the Table 2 with the amplified regions of selected genes provided in Table 3). PCR products were purified using the Qiaquick Gel Extraction kit (Qiagen) and directly sequenced on the ABI 3100-Avant automated DNA sequencer. Particular CpG sites were scored as positive if the C:T peak ratio exceeded 1:3 (at least 25% methylation). Real time quantitative PCR was performed for validation of microarray expression data of selected candidate genes by using 2.5 μl of 100 fold diluted cDNA template and 0.2 μM gene specific primers in a 25 μl PCR reaction using JumpStart SYBR green kit (Sigma) according to manufacturer's instructions in an ABI 7700. The reactions were performed in duplicate, CT values obtained were normalized to GAPDH levels and quantification was performed using the comparative CT method.

Consider `Nc1ncn([C@H]2C[C@H](O)[C@@H](CO)O2)c(=O)n1` [5AzadC, 5-Aza-2′-deoxycytidine], for which the “Re-expression of HOXB13” value in experiment [1] is “Re-expression of HOXB13 occurred”. The “Increase of expression of 150 genes upon 5AzadC treatment” value in experiment [2] is “greater than 4 fold”. Also, in experiment [3], the “Reversal of loss of expression of promoter-methylated candidate genes” value is on record as “could be reversed in the majority of cases”. Moreover, the “Upregulation of SYK” value in experiment [4] is reported as greater than 2 fold. The “Demethylation of promoter region” value in experiment [5] was “Demethylation was also induced; also recorded: demethylation of the promoter region”.
